Measurements taken from patent US11945806B2, “Stabilization of amyloidogenic immunoglobulin light chains” (The Scripps Research Institute, priority 2019, dated 2024).

The compounds below were run against WIL-FL (Homo sapiens, UniProt P01721) (assay: Unlabeled LC Protease Sensitivity Assay (proteinase K)). Details: small molecule 10 μM, WIL-FL 5 μM, proteinase K 50 nM, 2 hours at 37° C.
Assay type: biochemical
Protocol: Unlabeled LC Protease Sensitivity Assay. WIL-FL (5 μM) in phosphate-buffered saline (PBS, pH 7.4)+0.02% Pluronic F-127 was incubated with proteinase K (50 nM) with small molecule (10 μM) in 1% DMSO vehicle, or vehicle alone. After 2 hours at 37° C., reactions were quenched with 2 mM phenylmethyl sulfonyl fluoride in methanol and centrifuged at 14,000 rpm for 2 minutes. Remaining WIL-FL was quantified by injecting 10 μL of the supernatant into a Waters Acquity H-Class Bio-UPLC (ultra performance liquid chromatography) instrument equipped with a BEH200 analytical size-exclusion column (1.7 μm, 4.6×150 mm) under isocratic conditions (0.2 mL/min, PBS+1 mM EDTA, 2400 psi backpressure, 15 min), monitoring absorbance at 280 nm. Activity of each compound is given as fold protection from protease=(A_compound−A_vehicle)/(A_no_protease−A_vehicle), where each “A” corresponds to peak integration of the respective treatment.

Compound	Protection (fold protection of LC from protease)
CCN(CC)c1ccc2c(C)c(CCOC(=O)N3CC4(C3)CS(=O)(=O)C4)c(=O)oc2c1 [Compound 110, 2-(7-(diethylamino)-4-methyl-2-oxo-2H-chromen-3-yl)ethyl 2-thia-6-azaspiro[3.3]heptane-6-carboxylate 2,2-dioxide]	B (3 ≤ B < 0.6)
CCN(CC)c1ccc2c(C)c(CCOC(=O)N3CCC(C)(O)C3)c(=O)oc2c1 (stereo not shown) [Compound 111, 2-(7-(diethylamino)-4-methyl-2-oxo-2H-chromen-3-yl)ethyl 3-hydroxy-3-methylpyrrolidine-1-carboxylate]	A (A < 0.3))
CCN(CC)c1ccc2c(C)c(CCOC(=O)N3CCS(=O)(=O)CC3)c(=O)oc2c1 [Compound 112, 2-(7-(diethylamino)-4-methyl-2-oxo-2H-chromen-3-yl)ethyl thiomorpholine-4-carboxylate 1,1-dioxide]	A (A < 0.3))
CCN(CC)c1ccc2c(C)c(CCOC(=O)N3CCN(c4cc(C)no4)CC3)c(=O)oc2c1 [Compound 113, 2-(7-(diethylamino)-4-methyl-2-oxo-2H-chromen-3-yl)ethyl 4-(3-methylisoxazol-5-yl)piperazine-1-carboxylate]	A (A < 0.3))
CCN(CC)c1ccc2c(C)c(CCOC(=O)N3CCN(c4ccccn4)CC3)c(=O)oc2c1 [Compound 114, 2-(7-(diethylamino)-4-methyl-2-oxo-2H-chromen-3-yl)ethyl 4-(pyridin-2-yl)piperazine-1-carboxylate]	A (A < 0.3))
CCN(CC)c1ccc2c(C)c(CCOC(=O)N3CCN(c4nn[nH]n4)CC3)c(=O)oc2c1 [Compound 115, 2-(7-(diethylamino)-4-methyl-2-oxo-2H-chromen-3-yl)ethyl 4-(2H-tetrazol-5-yl)piperazine-1-carboxylate]	A (A < 0.3))
CCN(CC)c1ccc2c(C)c(CCOC(=O)N3CCN(c4ncccn4)CC3)c(=O)oc2c1 [Compound 116, 2-(7-(diethylamino)-4-methyl-2-oxo-2H-chromen-3-yl)ethyl 4-(pyrimidin-2-yl)piperazine-1-carboxylate]	A (A < 0.3))
CCN(CC)c1ccc2c(C)c(CCOC(=O)NCc3cccc(NC(C)=O)c3)c(=O)oc2c1 [Compound 117, 2-(7-(diethylamino)-4-methyl-2-oxo-2H-chromen-3-yl)ethyl (3-acetamidobenzyl)carbamate]	C (C ≥ 0.6)
CCN(CC)c1ccc2c(C)c(CCOC(=O)N3CCC(Cc4cccnc4)CC3)c(=O)oc2c1 [Compound 118, 2-(7-(diethylamino)-4-methyl-2-oxo-2H-chromen-3-yl)ethyl 4-(pyridin-3-ylmethyl)piperidine-1-carboxylate]	B (3 ≤ B < 0.6)
CCN(CC)c1ccc2c(C)c(CCOC(=O)NCc3ccc(C(=O)O)cc3)c(=O)oc2c1 [Compound 119, 4-((((2-(7-(diethylamino)-4-methyl-2-oxo-2H-chromen-3-yl)ethoxy)carbonyl)amino)methyl)benzoic acid]	B (3 ≤ B < 0.6)
CCN(CC)c1ccc2c(C)c(CCOC(=O)NCc3cccc(C(=O)O)c3)c(=O)oc2c1 [Compound 123, 3-((((2-(7-(diethylamino)-4-methyl-2-oxo-2H-chromen-3-yl)ethoxy)carbonyl)amino)methyl)benzoic acid]	B (3 ≤ B < 0.6)
CCN(CC)c1ccc2c(C)c(CCOC(=O)NCc3ccc(NC(C)=O)cn3)c(=O)oc2c1 [Compound 127, 2-(7-(diethylamino)-4-methyl-2-oxo-2H-chromen-3-yl)ethyl ((5-acetamidopyridin-2-yl)methyl)carbamate]	B (3 ≤ B < 0.6)
CCN(CC)c1ccc2c(C)c(CCOC(=O)NCc3cncc(NC(C)=O)c3)c(=O)oc2c1 [Compound 128, 2-(7-(diethylamino)-4-methyl-2-oxo-2H-chromen-3-yl)ethyl ((5-acetamidopyridin-3-yl)methyl)carbamate]	B (3 ≤ B < 0.6)
